# In ChEMBL document CHEMBL3217457, “Carbazolepyrrolo[2,1-c][1,4]benzodiazepine conjugates: design, synthesis, and biological evaluation” (Medchemcomm, 2011):
# Activity calls are given as the source filed them. No cut-off for these calls is given here.
# Columns and labels:
# PC-3 [1] = test: Growth inhibition of human PC3 cells; type: functional
# A549 = test: Growth inhibition of human A549 cells; type: functional
# KB = test: Growth inhibition of human KB cells; type: functional
# [2] = Growth inhibition of human Gurav cells; type: functional
# A2780 = test: Growth inhibition of human A2780 cells; type: functional
# SiHa = test: Growth inhibition of human SiHa cells; type: functional
# ZR-75-1 = test: Growth inhibition of human ZR-75-1 cells; type: functional
# MCF7 [3] = test: Cytotoxicity against human MCF7 cells assessed as decrease in cell viability at 2 to 16 uM after 6 to 48 hrs by MTT assay; type: functional, cell-based
# MCF7 [4] = test: Cytotoxicity against human MCF7 cells assessed as decrease in cell viability at 4 uM after 24 hrs by MTT assay; type: functional, cell-based
# MCF7 [5] = test: Cytotoxicity against human MCF7 cells by ATP-dependent cell viability assay; type: functional, cell-based
# MCF7 [6] = test: Cell cycle arrest in human MCF7 cells assessed as accumulation at G0 phase at 4 uM after 24 hrs by propidium iodide staining based flow cytometry (reference value: 2.77%); type: functional
# MCF7 [7] = test: Cell cycle arrest in human MCF7 cells assessed as accumulation at G1 phase at 4 uM after 24 hrs by propidium iodide staining based flow cytometry (reference value: 57.98%); type: functional
# MCF7 [8] = test: Cell cycle arrest in human MCF7 cells assessed as accumulation at S phase at 4 uM after 24 hrs by propidium iodide staining based flow cytometry (reference value: 14.30%); type: functional
# MCF7 [9] = test: Cell cycle arrest in human MCF7 cells assessed as accumulation at G2/M phase at 4 uM after 24 hrs by propidium iodide staining based flow cytometry (reference value: 24.95%); type: functional
# MCF7 [10] = test: Cell cycle arrest in human MCF7 cells assessed as accumulation at G0/G1 phase at 4 uM after 24 hrs by propidium iodide staining based flow cytometry (reference value: 60.75%); type: functional
# MCF7 [11] = test: Induction of apoptosis in human MCF7 cells assessed as Apoalert DNA fragmentation at 4 uM after 24 hrs by TUNEL assay; type: functional, cell-based
# MCF7 [12] = test: Antiproliferative activity against human MCF7 cells assessed as cell proliferation at 4 uM after 24 hrs by BrdU incorporation assay (reference value: 100%); type: functional; conditions: MCF7, 24 h, read-out: Activity
# MCF7 [13] = test: Downregulation of cyclin D1 protein expression in human MCF7 cells at 2 to 4 uM after 24 hrs by Western blot analysis; type: functional, cell-based
# MCF7 [14] = test: Upregulation of p53 protein expression in human MCF7 cells at 4 uM after 24 hrs by Western blot analysis; type: functional, cell-based
# MCF7 [15] = test: Upregulation of Bax protein expression in human MCF7 cells at 4 uM after 24 hrs by Western blot analysis; type: functional, cell-based
# MCF7 [16] = test: Downregulation of c-Jun protein expression in human MCF7 cells at 4 uM after 24 hrs by Western blot analysis; type: functional, cell-based
# MCF7 [17] = test: Downregulation of Jun B protein expression in human MCF7 cells at 4 uM after 24 hrs by Western blot analysis; type: functional, cell-based
# MCF7 [18] = test: Downregulation of CREB protein expression in human MCF7 cells at 4 uM after 24 hrs by Western blot analysis; type: functional, cell-based
# MCF7 [19] = test: Downregulation of CDK4 protein expression in human MCF7 cells at 4 uM after 24 hrs by Western blot analysis; type: functional, cell-based
# MCF7 [20] = test: Upregulation of JNK1/2 protein expression in human MCF7 cells at 4 uM after 24 hrs by Western blot analysis; type: functional, cell-based
# MCF7 [21] = test: Upregulation of PARP protein expression in human MCF7 cells at 4 uM after 24 hrs by Western blot analysis; type: functional, cell-based
# MCF7 [22] = test: Induction of apoptosis in human MCF7 cells assessed as procaspase-7 cleavage at 4 uM after 24 hrs by Western blot analysis; type: functional, cell-based
# MCF7 [23] = test: Induction of apoptosis in human MCF7 cells assessed as pRb protein expression at 4 uM after 24 hrs by Western blot analysis; type: functional, cell-based
# PC-3 [24] = test: Anticancer activity against human PC3 cells xenografted in NOD-SCID mouse assessed as decrease in tumor weight at 20 mg/kg, iv q4d on days 1, 5 and 9; type: functional, organism-based; set-up: dose 20 mg/kg
# PC-3 [25] = test: Anticancer activity against human PC3 cells xenografted in NOD-SCID mouse assessed as decrease in tumor volume at 20 mg/kg, iv q4d on days 1, 5 and 9; type: functional, organism-based; set-up: dose 20 mg/kg
# [26] = Toxicity in iv dosed NOD-SCID mouse xenografted with human PC3 cells assessed as maximum tolerated dose administered q4d on days 1, 5 and 9; type: organism-based, PC-3; conditions: in vivo
# Mus musculus [27] = test: Toxicity in NOD-SCID mouse xenografted with human PC3 cells assessed as weight loss at 20 mg/kg, iv q4d on days 1, 5 and 9; type: organism-based, PC-3; set-up: dose 20 mg/kg, route intravenous; conditions: in vivo
# Mus musculus [28] = test: Toxicity in NOD-SCID mouse xenografted with human PC3 cells assessed as mortality at 20 mg/kg, iv q4d on days 1, 5 and 9; type: organism-based, PC-3; set-up: dose 20 mg/kg, route intravenous; conditions: in vivo
# Calf thymus DNA = test: Binding affinity to calf thymus DNA assessed as change in melting temperature at compound to DNA ratio of 1:5 after 18 hrs by thermal denaturation analysis; type: nucleic-acid assay; conditions: Bos taurus
# HOP-62 = test: Growth inhibition of human HOP62 cells; type: functional
# COLO 205 = test: Growth inhibition of human COLO205 cells; type: functional
# MCF7 [29] = test: Growth inhibition of human MCF7 cells; type: functional
structure (smiles),measurement,setting,value
COc1ccc(-c2ccc3c(c2)c2cc(-c4ccc(OC)cc4)ccc2n3CCCCN2CCN(CCCCOc3cc4c(cc3OC)C(=O)N3CCC[C@H]3C=N4)CC2)cc1,GI50,PC-3 [1],10 nM
same,GI50,A549,90 nM
same,GI50,KB,100 nM
same,GI50,[2],110 nM
same,GI50,A2780,10 nM
same,GI50,SiHa,110 nM
same,GI50,ZR-75-1,120 nM
same,inhibition,MCF7 [3],Active
same,inhibition,MCF7 [4],Active
same,inhibition,MCF7 [5],Active
same,Activity,MCF7 [6],25.31%
same,Activity,MCF7 [7],63.03%
same,Activity,MCF7 [8],5.44%
same,Activity,MCF7 [9],6.2%
same,Activity,MCF7 [10],88.34%
same,Activity,MCF7 [11],Active
same,growth at 4 µM,MCF7 [12],28%
same,inhibition,MCF7 [13],Active
same,Activity,MCF7 [14],Active
same,Activity,MCF7 [15],Active
same,inhibition,MCF7 [16],Active
same,inhibition,MCF7 [17],Active
same,inhibition,MCF7 [18],Active
same,inhibition,MCF7 [19],Active
same,Activity,MCF7 [20],Active
same,Activity,MCF7 [21],Active
same,Activity,MCF7 [22],Active
same,Activity,MCF7 [23],Active
same,inhibition,PC-3 [24],Active
same,inhibition,PC-3 [25],Active
same,MTD,[26],< 50 mg/kg
same,Activity,Mus musculus [27],Non-toxic
same,Activity,Mus musculus [28],Non-toxic
same,ΔTm,Calf thymus DNA,10.2 °C
same,GI50,HOP-62,10 nM
same,GI50,COLO 205,70 nM
same,GI50,MCF7 [29],10 nM
